Structures are written as SMILES. Values after ≈ are worked out from the molar mass of the structure shown.

One may read the IC50 as the concentration that gives 50% inhibition. A high value points to weaker potency in that assay. In general, LD50 refers to the dose at which mortality reaches 50%. Higher therefore signals lower toxicity.

In one data set the test system is calpain. The data set is described as follows: calpain inhibition using casein as substrate (method by Saito et al.). The format is biochemical.
The subject of data set [1] is various kinds of bacteria, yeast and fungi. The data set is described as follows: antimicrobial activity (paper disk method). The format is cell-based. As to conditions: 100 μg/disk.
Another data set relates to B-16 melanoma cells. The data set is described as follows: activity against B-16 melanoma cells in vitro. As to conditions: Mus musculus, B16. The format is cell-based.
Data set [2] is described as follows: acute toxicity LD50 (ip) in mice. As to conditions: mouse, in vivo.
The nature of the next data set: solubility in solvent. It is filed as physicochemical. As to conditions: water, methanol, acetone, chloroform and benzene.

`NC(=O)CCc1cc[nH]c1` [cystamidin A]: the “IC50 (50% inhibition) against calpain” value in the data set with calpain was 0.20 µg/mL (≈ 1.45 µM). In data set [1], the antimicrobial activity entry is given as “no antimicrobial activity”. Further, the IC50 in the data set with B-16 melanoma cells was over 25 µg/mL. Besides, the 50% lethal dose (LD50) in data set [2] is over 200 mg/kg. The Solubility in solvent entry in the data set “solubility in solvent” is “soluble in water, methanol, acetone, chloroform and benzene”.

Source of the values: US5336783A, “Calpain inhibitor cystamidin A and its production” (The Kitasato Institute, priority 1992, dated 1994).
